Data on 5 compounds can be found in ChEMBL document CHEMBL1131778, “Solid phase synthesis of quinolones” (1999).

Molecules are shown by their SMILES.

Test [1] relates to Brugia malayi. The experiment in a line: In vitro anti-filarial activity against male adult worms of Brugia. malayi at 100 uM concentration, using motility assay; D = Dead worms. The format is functional, organism-based.
Test [2] relates to Brugia malayi. In words: In vitro anti-filarial activity of the compound against male adult worms of Brugia. malayi at 100 uM concentration, using MTT reduction potential assay. The format is functional.
Test [3] concerns Brugia malayi. The experiment in a line: In vitro anti-filarial activity against female adult worms of Brugia. malayi at 100 uM concentration, using motility assay; D = Dead worms. The format is functional, organism-based.
In test [4] the test system is Brugia malayi. The experiment in a line: In vitro anti-filarial activity against female adult worms of Brugia. malayi at 100 uM concentration, using MTT reduction potential assay. The format is functional.
In test [5] the test system is Brugia malayi. The experiment in a line: In vitro anti-filarial activity against male adult worms of Brugia. malayi at 100 uM concentration, using motility assay. It counts as functional.
In test [6] the test system is Brugia malayi. The experiment in a line: In vitro anti-filarial activity against female adult worms of Brugia. malayi at 100 uM concentration, using motility assay. The format is functional.
The test system of test [7] is Brugia malayi. The experiment in a line: In vitro anti-filarial activity against male adult worms of Brugia. malayi at 100 uM concentration, using MTT reduction potential assay. It counts as functional.
Test [8] deals with Brugia malayi. The experiment in a line: In vitro anti-filarial activity against male adult worms of Brugia. malayi at 100 uM concentration, using motility assay D = Dead worms. It counts as functional, organism-based.
In test [9] the test system is Brugia malayi. In words: In vitro anti-filarial activity against female adult worms of Brugia. malayi at 100 uM concentration, using motility assay. It counts as functional.

On to `CCCCCCNC(=O)c1cnc2ccc(C(=O)O)cc2c1O`, for which the Mortality entry in test [1] and in [3] was “Dead worms” throughout. The inhibition at 100 µM in test [2] turned out to be 58.8%; in test [4], 64.8%.

With `O=C(O)c1ccc2ncc(C(=O)NC3CCCCCC3)c(O)c2c1`, the Mortality in [5] and in test [6] was 3 in each case. Further, the inhibition at 100 µM in [7] and in test [4] was 0% in each case.

As to `CCCCCCCCNC(=O)c1cnc2ccc(C(=O)O)cc2c1O`, the Mortality entry in test [8] and in test [3] was “Dead worms” in each case. Further, the inhibition at 100 µM in test [7] stood at 62.8%; in test [4] it was 84.8%.

With `CCOC(=O)c1cnc2ccc(C(=O)O)cc2c1O`, the Mortality in [5] and in [6] was 3 throughout. The inhibition at 100 µM in [7] and in test [4] was 0% in each case.

With `O=C(O)c1ccc2ncc(C(=O)NC3CCCCC3)c(O)c2c1`, the Mortality in test [5] and in test [9] was 3 each time. The inhibition at 100 µM in test [7] and in [4] was 0% in each case.
